# In US4317912A, “Tetracyclic indole derivatives” (Farmitalia Carlo Erba S.p.A., priority 1979, dated 1982):
# How the values were obtained:
# [1] = Acute (orientative) oral toxicity in mice; details: mouse, in vivo
# Source text: The male mice for each group were orally treated with drugs at different dose levels for the determination of orientative toxicity.
# [2] = system: spontaneously hypertensive rats (Okamoto strain); assay: Anti-hypertensive activity in conscious spontaneously hypertensive rats (Okamoto), carotid artery catheter; format: in vivo, rat (spontaneously hypertensive
# Method: Blood pressure recordings were made in conscious hypertensive unrestrained rats weighing approximately 300 g, via a catheter cronically inserted into the left common carotid artery. Implantation of arterial cannula was made under sodium pentobarbital anesthesia (50 mg/kg i.p.). A 1 cm long incision was made through the previously shaved ventral surface of the neck and the tissues overlying the trachea parted by blunt dissection to reveal the carotid artery. The polyethylene catheter used was made with PE 50 tubing, previously filled with saline containing 250 I.U./ml heparin. The tip of the cannula was pushed at least 2 cm inside the vessel toward the heart. The cannula was then firmly tied and passed beneath the skin to emerge from a small incision in the back of the neck. During the postoperative period and before the start of each recording session, the cannula was flushed through daily with saline containing heparin (250 U.I./ml). The experiments were performed two days after surgery. Drugs were administered by gastric gavage.
# [3] = system: spontaneously hypertensive male rats, strain MHS; assay: Anti-hypertensive activity in spontaneously hypertensive rats (MHS), blood pressure and heart rate measured at the tail; format: in vivo, rat (spontaneously hypertensive; details: for Change in BP, 1st day, 1 hr after dose / Change in HR, 1st day, 1 hr after dose / Change in BP, 1st day, 5 hrs after dose / Change in HR, 1st day, 5 hrs after dose / Change in BP, 4th day, 1 hr after dose / Change in HR, 4th day, 1 hr after dose / Change in BP, 4th day, 5 hrs after dose / Change in HR, 4th day, 5 hrs after dose: mean of 4 animals; for Tolerance after repeated administration: four days, 355/1226 3 mg/kg, 355/1225 and 355/1229 5 mg/kg per os
# Method: Four spontaneously hypertensive male rats, strains MHS, weighing 250-300 g for each group were used.
# The animals were treated for four consecutive days. Drugs were administered by gastric gavage, suspended in 5% arabic gum (0.2 ml/100 g body weight). Blood pressure (BP) and heart rate (HR) were measured at the tail by BP Recorder W+W. Blood pressure and heart rate were measured on the 1st and 4th day of treatment 1 hour before and 1 and 5 hours after drug administration.
# *Data of LD50 from the literature. In Tables 1 and 2 are reported
# the results of the study of the activity of compounds 355/1165 and
# 355/1166 upon the BP and HR (measured indirectly by means of a tail cuff)
# of spontaneous hypertensive rats, MHS strain (4 rats each group). The
# compounds were given orally, once a day for 4 consecutive days.
# [4] = 1 mg/kg os, 30', mean of 6 animals
# [5] = 1 mg/kg os, 60', mean of 6 animals
# [6] = 1 mg/kg os, 120', mean of 6 animals
# [7] = 1 mg/kg os, 240', mean of 6 animals
# [8] = 1 mg/kg os, 360', mean of 6 animals
# [9] = MHS rats, 0.5 mg/kg os, 1st day
# [10] = MHS rats, 0.5 mg/kg os, 4th day
smiles,measurement,setting,value
"CN1CC(CC(C#N)C(N)=O)C2Cc3cccc4[nH]cc(c34)CC21 (stereo not drawn) [355/1165, 2-Cyano-3-[trans-5(10→9)abeo-6-methyl-ergoline-8β]-propionamide]",LD50 at 168 h,[1],> 1000 mg/kg
same,"Change in blood pressure after treatment, 30'",[2]; [4],-21 mmHg
same,"Change in heart rate after treatment, 30'",[2]; [4],-25 b/min
same,"Change in blood pressure after treatment, 60'",[2]; [5],-29 mmHg
same,"Change in heart rate after treatment, 60'",[2]; [5],-45 b/min
same,"Change in blood pressure after treatment, 120'",[2]; [6],-33 mmHg
same,"Change in heart rate after treatment, 120'",[2]; [6],-52 b/min
same,"Change in blood pressure after treatment, 240'",[2]; [7],-26 mmHg
same,"Change in heart rate after treatment, 240'",[2]; [7],-8 b/min
same,"Change in blood pressure after treatment, 360'",[2]; [8],-23 mmHg
same,"Change in heart rate after treatment, 360'",[2]; [8],+18 b/min
same,Activity compared with hydralazine,[2]; 1 mg/kg per os,3 times
same,Hypotensive activity,[2]; 1 mg/kg per os,marked and long lasting hypotensive activity
same,Effect on heart rate,[2]; oral (Table 4),slight bradycardia and never tachicardia
same,"Change in BP, 1st day, 1 hr after dose",[3]; [9],-13 mmHg
same,"Change in HR, 1st day, 1 hr after dose",[3]; [9],-25 b/min
same,"Change in BP, 1st day, 5 hrs after dose",[3]; [9],-17 mmHg
same,"Change in HR, 1st day, 5 hrs after dose",[3]; [9],-25 b/min
same,"Change in BP, 4th day, 1 hr after dose",[3]; [10],-17 mmHg
same,"Change in HR, 4th day, 1 hr after dose",[3]; [10],-30 b/min
same,"Change in BP, 4th day, 5 hrs after dose",[3]; [10],-3 mmHg
same,"Change in HR, 4th day, 5 hrs after dose",[3]; [10],-35 b/min
same,"Change in BP, 1st day, 1 hr after dose","[3]; MHS rats, 1 mg/kg os, 1st day",-15 mmHg
same,"Change in HR, 1st day, 1 hr after dose","[3]; MHS rats, 1 mg/kg os, 1st day",-20 b/min
same,"Change in BP, 1st day, 5 hrs after dose","[3]; MHS rats, 1 mg/kg os, 1st day",-19 mmHg
same,"Change in HR, 1st day, 5 hrs after dose","[3]; MHS rats, 1 mg/kg os, 1st day",-15 b/min
same,"Change in BP, 4th day, 1 hr after dose","[3]; MHS rats, 1 mg/kg os, 4th day",-30 mmHg
same,"Change in HR, 4th day, 1 hr after dose","[3]; MHS rats, 1 mg/kg os, 4th day",-27 b/min
same,"Change in BP, 4th day, 5 hrs after dose","[3]; MHS rats, 1 mg/kg os, 4th day",-42 mmHg
same,"Change in HR, 4th day, 5 hrs after dose","[3]; MHS rats, 1 mg/kg os, 4th day",-20 b/min
same,"Change in BP, 1st day, 1 hr after dose","[3]; MHS rats, 2 mg/kg os, 1st day",-25 mmHg
same,"Change in HR, 1st day, 1 hr after dose","[3]; MHS rats, 2 mg/kg os, 1st day",-47 b/min
same,"Change in BP, 1st day, 5 hrs after dose","[3]; MHS rats, 2 mg/kg os, 1st day",-53 mmHg
same,"Change in HR, 1st day, 5 hrs after dose","[3]; MHS rats, 2 mg/kg os, 1st day",-80 b/min
same,"Change in BP, 4th day, 1 hr after dose","[3]; MHS rats, 2 mg/kg os, 4th day",-33 mmHg
same,"Change in HR, 4th day, 1 hr after dose","[3]; MHS rats, 2 mg/kg os, 4th day",-48 b/min
same,"Change in BP, 4th day, 5 hrs after dose","[3]; MHS rats, 2 mg/kg os, 4th day",-45 mmHg
same,"Change in HR, 4th day, 5 hrs after dose","[3]; MHS rats, 2 mg/kg os, 4th day",-55 b/min
same,Effect on BP,"[3]; MHS rats, 0.5, 1 and 2 mg/kg per os, 1st and 4th day",significantly lowers BP on the 1st and 4th day after the treatment
same,"Antihypertensive activity compared with Hydralazine, 1st day","[3]; MHS rats, 1st day, 355/1165 2 mg/kg, 355/1226 3 mg/kg per os vs Hydralazine 3 mg/kg per os",more marked antihypertensive activity
same,"Antihypertensive effect compared with Hydralazine, 4th day","[3]; MHS rats, 4th day, 355/1165 2 mg/kg, 355/1226 3 mg/kg per os vs Hydralazine 3 mg/kg per os",even greater effect
same,Tolerance after repeated administration,"[3]; MHS rats, 355/1165 2 mg/kg",tolerance does not occur after repeated administration
same,Activity compared with α-methyl-DOPA,"[3]; MHS rats, 355/1165 2 mg/kg, 355/1226 3 mg/kg per os",50 times
"CN1CC(CCC#N)C2Cc3cccc4[nH]cc(c34)CC21 (stereo not drawn) [355/1225, Trans-5(10→9)abeo-6-methyl-ergoline-8β-propionitrile]",LD50 at 168 h,[1],600 mg/kg
same,"Change in BP, 1st day, 1 hr after dose","[3]; MHS rats, 1 mg/kg os, 1st day",-28 mmHg
same,"Change in HR, 1st day, 1 hr after dose","[3]; MHS rats, 1 mg/kg os, 1st day",+5 b/min
same,"Change in BP, 1st day, 5 hrs after dose","[3]; MHS rats, 1 mg/kg os, 1st day",-17 mmHg
same,"Change in HR, 1st day, 5 hrs after dose","[3]; MHS rats, 1 mg/kg os, 1st day",-22 b/min
same,"Change in BP, 4th day, 1 hr after dose","[3]; MHS rats, 1 mg/kg os, 4th day",-34 mmHg
same,"Change in HR, 4th day, 1 hr after dose","[3]; MHS rats, 1 mg/kg os, 4th day",-40 b/min
same,"Change in BP, 4th day, 5 hrs after dose","[3]; MHS rats, 1 mg/kg os, 4th day",-21 mmHg
same,"Change in HR, 4th day, 5 hrs after dose","[3]; MHS rats, 1 mg/kg os, 4th day",-43 b/min
same,"Change in BP, 1st day, 1 hr after dose","[3]; MHS rats, 5 mg/kg os, 1st day",-67 mmHg
same,"Change in HR, 1st day, 1 hr after dose","[3]; MHS rats, 5 mg/kg os, 1st day",-32 b/min
same,"Change in BP, 1st day, 5 hrs after dose","[3]; MHS rats, 5 mg/kg os, 1st day",-42 mmHg
same,"Change in HR, 1st day, 5 hrs after dose","[3]; MHS rats, 5 mg/kg os, 1st day",-4 b/min
same,"Change in BP, 4th day, 1 hr after dose","[3]; MHS rats, 5 mg/kg os, 4th day",-34 mmHg
same,"Change in HR, 4th day, 1 hr after dose","[3]; MHS rats, 5 mg/kg os, 4th day",-55 b/min
same,"Change in BP, 4th day, 5 hrs after dose","[3]; MHS rats, 5 mg/kg os, 4th day",-21 mmHg
same,"Change in HR, 4th day, 5 hrs after dose","[3]; MHS rats, 5 mg/kg os, 4th day",-59 b/min
same,Activity compared with Hydralazine and α-methyl-DOPA,"[3]; MHS rats, 5 mg/kg per os, 1st and 4th day, vs Hydralazine (3 mg/kg per os) and α-methyl-DOPA",greater activity
same,Time of peak effect on blood pressure,"[3]; MHS rats, 1 and 5 mg/kg orally",one hour after dosing
same,Effect on blood pressure,"[3]; MHS rats, 1 and 5 mg/kg orally, 1st and 4th day",reduces blood pressure in dose-dependent manner on both the 1st and 4th day of treatment
same,Tolerance after repeated administration,"[3]; MHS rats, 355/1165 2 mg/kg",No tolerance occurs
